Data reported in patent US12441762B2, “Hepatitis c virus NS3/4A protease inhibitors” (priority 2019, dated 2025).

How the values were obtained:
[1] = target: T1, wild-type HCV NS3/4A protease (GT1a) (Hepatitis C virus genotype 1a, UniProt P27958, C1185S); experiment: biochemical; assay type: biochemical
T1 construct: His-tag (cleaved yes); made in house; host or cells: Escherichia coli BL21(DE3), PET28a vector
Protocol: (§1) The HCV GT1a NS3/4A protease gene described in the Bristol Myers Squibb patent was synthesized by GenScript and cloned into a PET28a expression vector. Cys159 was mutated to a serine residue to prevent disulfide bond formation and facilitate crystallization. The D168A gene was engineered using the site-directed mutagenesis protocol from Stratagene. Protein expression and purification were carried out as previously described.
(§2) Km constants for GT1 and D168A protease were previously determined. […] Inner filter effect corrections were applied to the initial velocities (Vo) at each substrate concentration. Vo versus substrate concentration graphs were globally fit to the Michaelis-Menten equation to obtain the Km value.
(§3) For each assay, 2 nM of NS3/4A protease (GT1a and D168A) was pre-incubated at room temperature for 1 h with increasing concentration of inhibitors in assay buffer (50 mM Tris, 5% glycerol, 10 mM DTT, 0.6 mM LDAO, and 4% dimethyl sulfoxide, pH 7.5). Inhibition assays were performed in non-binding surface 96-well black half-area plates (Corning) in a reaction volume of 60 μL. […] Three independent data sets were collected for each inhibitor with each protease construct.

[2] = target: T2, HCV NS3/4A protease D168A variant (Hepatitis C virus genotype 1a, UniProt P27958, C1185S/D1194A); experiment: biochemical; assay type: biochemical
T2 construct: His-tag (cleaved yes); made in house; host or cells: Escherichia coli BL21(DE3), PET28a vector
T2 sequence (P27958 1027-1208 C1185S/D1194A): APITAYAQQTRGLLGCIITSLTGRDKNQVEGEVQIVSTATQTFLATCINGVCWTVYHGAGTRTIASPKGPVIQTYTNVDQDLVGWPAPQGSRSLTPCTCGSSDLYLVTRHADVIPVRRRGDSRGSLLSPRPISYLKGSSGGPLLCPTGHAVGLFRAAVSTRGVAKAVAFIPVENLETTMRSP
Protocol: as §1, §2, §3

T1 sequence (P27958 1027-1208 C1185S): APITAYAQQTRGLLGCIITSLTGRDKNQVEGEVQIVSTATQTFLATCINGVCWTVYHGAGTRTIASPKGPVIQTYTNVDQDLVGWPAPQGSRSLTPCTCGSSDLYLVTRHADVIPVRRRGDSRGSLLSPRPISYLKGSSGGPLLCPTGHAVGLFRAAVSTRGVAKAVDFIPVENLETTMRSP

Compound | Ki [1] [nM] | Ki [2] [nM]
COc1ccc2nc(C)c(O[C@@H]3C[C@H]4C(=O)N[C@]5(C(=O)NS(=O)(=O)C6(C)CC6)C[C@H]5/C=C\CCCCC[C@H](NC(=O)OC(C)(C)C(F)(F)F)C(=O)N4C3)nc2c1 [AJ-71, 1,1,1-Trifluoro-2-methylpropan-2-yl ((2R,6S,13aS,14aR,16aS,Z)-2-((7-methoxy-3-methylquinoxalin-2-yl)oxy)-14a-(((1-methylcyclopropyl)sulfonyl)carbamoyl)-5,16-dioxo-1,2,3,5,6,7,8,9,10,11,13a,14,14a,15,16,16a-hexadecahydrocyclopropa[e]pyrrolo[1,2-a][1,4]diazacyclopentadecin-6-yl)carbamate] | 2.56 ± 0.44 | 39 ± 2.9
COc1ccc2nc(C(F)(F)F)c(O[C@@H]3C[C@H]4C(=O)N[C@]5(C(=O)NS(=O)(=O)C6(C)CC6)C[C@H]5/C=C\CCCCC[C@H](NC(=O)OC5CCC5)C(=O)N4C3)nc2c1 [NR01-95, Cyclobutyl ((2R,6S,13aS,14aR,16aS,Z)-2-((7-methoxy-3-(trifluoromethyl)quinoxalin-2-yl)oxy)-14a-(((1-methylcyclopropyl)sulfonyl)carbamoyl)-5,16-dioxo-1,2,3,5,6,7,8,9,10,11,13a,14,14a,15,16,16a-hexadecahydrocyclopropa[e]pyrrolo[1,2-a][1,4]diazacyclopentadecin-6-yl)carbamate] | 8.53 ± 0.87 | 29.5 ± 1.8
COc1ccc2nc(C)c(O[C@@H]3C[C@H]4C(=O)N[C@]5(C(=O)NS(=O)(=O)C6(C)CC6)C[C@H]5/C=C\CCCCC[C@H](NC(=O)O[C@@H](C)C(C)C)C(=O)N4C3)nc2c1 [NR01-99, (S)-3-Methylbutan-2-yl ((2R,6S,13aS,14aR,16aS,Z)-2-((7-methoxy-3-methylquinoxalin-2-yl)oxy)-14a-(((1-methylcyclopropyl)sulfonyl)carbamoyl)-5,16-dioxo-1,2,3,5,6,7,8,9,10,11,13a,14,14a,15,16,16a-hexadecahydrocyclopropa[e]pyrrolo[1,2-a][1,4]diazacyclopentadecin-6-yl)carbamate] | 1.91 ± 0.3 | 21.7 ± 2.3
COc1ccc2nc(C)c(O[C@@H]3C[C@H]4C(=O)N[C@]5(C(=O)NS(=O)(=O)C6(C)CC6)C[C@H]5/C=C\CCCCC[C@H](NC(=O)OCC5(C)CC5)C(=O)N4C3)nc2c1 [NR01-115, (1-Methylcyclopropyl)methyl ((2R,6S,13aS,14aR,16aS,Z)-2-((7-methoxy-3-methylquinoxalin-2-yl)oxy)-14a-(((1-methylcyclopropyl)sulfonyl)carbamoyl)-5,16-dioxo-1,2,3,5,6,7,8,9,10,11,13a,14,14a,15,16,16a-hexadecahydrocyclopropa[e]pyrrolo[1,2-a][1,4]diazacyclopentadecin-6-yl)carbamate] | 0.65 ± 0.2 | 21.6 ± 1.7
COc1ccc2nc(C(F)(F)F)c(O[C@@H]3C[C@H]4C(=O)N[C@]5(C(=O)NS(=O)(=O)C6(C)CC6)C[C@H]5/C=C\CCCCC[C@H](NC(=O)OCC5(C)CC5)C(=O)N4C3)nc2c1 [NR01-117, (1-Methylcyclopropyl)methyl ((2R,6S,13aS,14aR,16aS,Z)-2-((7-methoxy-3-(trifluoromethyl)quinoxalin-2-yl)oxy)-14a-(((1-methylcyclopropyl)sulfonyl)carbamoyl)-5,16-dioxo-1,2,3,5,6,7,8,9,10,11,13a,14,14a,15,16,16a-hexadecahydrocyclopropa[e]pyrrolo[1,2-a][1,4]diazacyclopentadecin-6-yl)carbamate] | 2.89 ± 0.19 | 18.6 ± 2
COc1ccc2nc(C)c(O[C@@H]3C[C@H]4C(=O)N[C@]5(C(=O)NS(=O)(=O)C6(C)CC6)C[C@H]5/C=C\CCCCC[C@H](NC(=O)O[C@H](C)C(C)C)C(=O)N4C3)nc2c1 [NR01-119, (R)-3-Methylbutan-2-yl ((2R,6S,13aS,14aR,16aS,Z)-2-((7-methoxy-3-methylquinoxalin-2-yl)oxy)-14a-(((1-methylcyclopropyl)sulfonyl)carbamoyl)-5,16-dioxo-1,2,3,5,6,7,8,9,10,11,13a,14,14a,15,16,16a-hexadecahydrocyclopropa[e]pyrrolo[1,2-a][1,4]diazacyclopentadecin-6-yl)carbamate] | 1.52 ± 0.02 | 23.9 ± 3.5
COc1ccc2nc(C(F)(F)F)c(O[C@@H]3C[C@H]4C(=O)N[C@]5(C(=O)NS(=O)(=O)C6(C)CC6)C[C@H]5/C=C\CCCCC[C@H](NC(=O)O[C@H](C)C(C)C)C(=O)N4C3)nc2c1 [NR01-121, (R)-3-Methylbutan-2-yl ((2R,6S,13aS,14aR,16aS,Z)-2-((7-methoxy-3-(trifluoromethyl)quinoxalin-2-yl)oxy)-14a-(((1-methylcyclopropyl)sulfonyl)carbamoyl)-5,16-dioxo-1,2,3,5,6,7,8,9,10,11,13a,14,14a,15,16,16a-hexadecahydrocyclopropa[e]pyrrolo[1,2-a][1,4]diazacyclopentadecin-6-yl)carbamate] | 2.96 ± 0.22 | 10.4 ± 0.9
COc1ccc2nc(C)c(O[C@@H]3C[C@H]4C(=O)N[C@]5(C(=O)NS(=O)(=O)C6(C)CC6)C[C@H]5/C=C\CCCCC[C@H](NC(=O)OC5CCC5)C(=O)N4C3)nc2c1 [NR01-127, Cyclobutyl ((2R,6S,13aS,14aR,16aS,Z)-2-((7-methoxy-3-methylquinoxalin-2-yl)oxy)-14a-(((1-methylcyclopropyl)sulfonyl)carbamoyl)-5,16-dioxo-1,2,3,5,6,7,8,9,10,11,13a,14,14a,15,16,16a-hexadecahydrocyclopropa[e]pyrrolo[1,2-a][1,4]diazacyclopentadecin-6-yl)carbamate] | 0.3 ± 0.2 | 52.4 ± 9
COc1ccc2nc(C(F)(F)F)c(O[C@@H]3C[C@H]4C(=O)N[C@]5(C(=O)NS(=O)(=O)C6(C)CC6)C[C@H]5/C=C\CCCCC[C@H](NC(=O)OC(C)(C)C(F)(F)F)C(=O)N4C3)nc2c1 [NR01-129, 1,1,1-Trifluoro-2-methylpropan-2-yl ((2R,6S,13aS,14aR,16aS,Z)-2-((7-methoxy-3-(trifluoromethyl)quinoxalin-2-yl)oxy)-14a-(((1-methylcyclopropyl)sulfonyl)carbamoyl)-5,16-dioxo-1,2,3,5,6,7,8,9,10,11,13a,14,14a,15,16,16a-hexadecahydrocyclopropa[e]pyrrolo[1,2-a][1,4]diazacyclopentadecin-6-yl)carbamate] | 3.6 ± 0.3 | 15.5 ± 1.8
COc1ccc2nc(C(F)(F)F)c(O[C@@H]3C[C@H]4C(=O)N[C@]5(C(=O)NS(=O)(=O)C6(C)CC6)C[C@H]5/C=C\CCCCC[C@H](NC(=O)O[C@H](C)C(F)(F)F)C(=O)N4C3)nc2c1 [NR01-147, (R)-1,1,1-Trifluoropropan-2-yl ((2R,6S,13aS,14aR,16aS,Z)-2-((7-methoxy-3-(trifluoromethyl)quinoxalin-2-yl)oxy)-14a-(((1-methylcyclopropyl)sulfonyl)carbamoyl)-5,16-dioxo-1,2,3,5,6,7,8,9,10,11,13a,14,14a,15,16,16a-hexadecahydrocyclopropa[e]pyrrolo[1,2-a][1,4]diazacyclopentadecin-6-yl)carbamate] | 2.8 ± 0.7 | 17 ± 2.4
COc1ccc2nc(C)c(O[C@@H]3C[C@H]4C(=O)N[C@]5(C(=O)NS(=O)(=O)C6(C)CC6)C[C@H]5/C=C\CCCCC[C@H](NC(=O)OC5CC(F)(F)C5)C(=O)N4C3)nc2c1 [NR01-149, 3,3-Difluorocyclobutyl ((2R,6S,13aS,14aR,16aS,Z)-2-((7-methoxy-3-methylquinoxalin-2-yl)oxy)-14a-(((1-methylcyclopropyl)sulfonyl)carbamoyl)-5,16-dioxo-1,2,3,5,6,7,8,9,10,11,13a,14,14a,15,16,16a-hexadecahydrocyclopropa[e]pyrrolo[1,2-a][1,4]diazacyclopentadecin-6-yl)carbamate] | 0.62 ± 0.3 | 26 ± 1
COc1ccc2nc(C(F)(F)F)c(O[C@@H]3C[C@H]4C(=O)N[C@]5(C(=O)NS(=O)(=O)C6(C)CC6)C[C@H]5/C=C\CCCCC[C@H](NC(=O)OC5CC(F)(F)C5)C(=O)N4C3)nc2c1 [NR01-151, 3,3-Difluorocyclobutyl ((2R,6S,13aS,14aR,16aS,Z)-2-((7-methoxy-3-(trifluoromethyl)quinoxalin-2-yl)oxy)-14a-(((1-methylcyclopropyl)sulfonyl)carbamoyl)-5,16-dioxo-1,2,3,5,6,7,8,9,10,11,13a,14,14a,15,16,16a-hexadecahydrocyclopropa[e]pyrrolo[1,2-a][1,4]diazacyclopentadecin-6-yl)carbamate] | 10.9 ± 1.1 | 43.2 ± 6.3
COc1ccc2nc(C(F)(F)F)c(O[C@@H]3C[C@H]4C(=O)N[C@]5(C(=O)NS(=O)(=O)C6(C)CC6)C[C@H]5/C=C\CCCCC[C@H](NC(=O)O[C@@H]5CCC[C@H]5F)C(=O)N4C3)nc2c1 [NR02-09, (1R,2R)-2-Fluorocyclopentyl ((2R,6S,13aS,14aR,16aS,Z)-2-((7-methoxy-3-(trifluoromethyl)quinoxalin-2-yl)oxy)-14a-(((1-methylcyclopropyl)sulfonyl)carbamoyl)-5,16-dioxo-1,2,3,5,6,7,8,9,10,11,13a,14,14a,15,16,16a-hexadecahydrocyclopropa[e]pyrrolo[1,2-a][1,4]diazacyclopentadecin-6-yl)carbamate] | 8 ± 1.8 | 18.9 ± 3.6
